Converted amounts (≈) assume the structure as drawn. Where only a bound is given, the exact number is not on record here.

This note sets out measurements from ChEMBL document CHEMBL3044936, “Antifeedant properties of natural products from Parthenium argentatum, P. argentatumP. tomentosum (Asteraceae) and Castela emoryi (Simaroubeaceae) against Reticulitermes flavipes” (1999).

What all share (type): functional
Assay [1] concerns Reticulitermes flavipes. Kind of assay: Ratio of mortality to compound consumption in Reticulitermes flavipes at 5.5 ug/disk after 10 days.
For assay [2], the system named is Reticulitermes flavipes. Kind of assay: Antitermitic activity against Reticulitermes flavipes assessed as mortality at 5.5 ug/disk after 10 days by no-choice paper disk assay. The settings on record: 240 h.
Assay [3] relates to Reticulitermes flavipes. Kind of assay: Antifeedant activity against Reticulitermes flavipes assessed as compound consumption at 5.5 ug/disk after 10 days by no-choice paper disk assay.
The test system of assay [4] is Reticulitermes flavipes. Put plainly: Antifeedant activity against Reticulitermes flavipes assessed as feeding inhibition at 2.7 ug/disk after 3 days by choice paper disk assay. To be noted: 72 h.
Assay [5] concerns Reticulitermes flavipes. Put plainly: Antifeedant activity against Reticulitermes flavipes assessed as feeding inhibition after 3 days by choice paper disk assay. The settings on record: 72 h, read-out: ED50 (the source's name).

As a reminder, the mortality is the share of the test organisms that died. For orientation: inhibition means the percentage by which the read-out fell short of the control. Turning to `COC1=C[C@]2(C)CCC(C(C)C)=CC2=C(C)C1=O` [ARGENTONE], the Ratio in assay [1] worked out at 2. Besides, the mortality at 5.5 µg/disc in assay [2] was determined as 66%. Besides, the Activity in assay [3] was determined as 33%. Moreover, the inhibition at 2.7 µg/disc in assay [4] was 70.5%. In addition, the EC50 in assay [5] is 85.7 µg/mL (≈ 348 µM).

Regarding `COc1ccc(C(=O)O[C@H]2C/C(C)=C/CC/C(C)=C/[C@H]3[C@@H]2C3(C)C)cc1` [GUAYULIN B], the Ratio in assay [1] came out at 0. Also, in assay [2], the mortality at 5.5 µg/disc stood at 0%. Further, the Activity in assay [3] was 72%. In addition, the inhibition at 2.7 µg/disc in assay [4] stood at 31.9%. Also, the EC50 in assay [5] was more than 1000 µg/mL.

On to `CC(=O)O[C@H]1C(=O)O[C@@H]2C[C@H]3C(C)=CC(=O)[C@@H](O)[C@]3(C)[C@H]3[C@]4(O)OC[C@]32[C@@H]1[C@@H](C)[C@H]4O` [HOLACANTHONE], for which the Ratio in assay [1] is 0.7. In assay [2], the mortality at 5.5 µg/disc is 24%. Further, in assay [3], the Activity is reported as 34%. In assay [4], the inhibition at 2.7 µg/disc turned out to be 39.4%. In addition, the EC50 in assay [5] is more than 1000 µg/mL.

As for `CC(C)(O)[C@@H]1CC[C@](C)([C@H]2[C@@H](O)C[C@@]3(C)C4=C(CC[C@]23C)[C@@]2(C)CCC(=O)C(C)(C)[C@@H]2CC4)O1` [INCANILIN], the Ratio in assay [1] is 0. Besides, in assay [2], the mortality at 5.5 µg/disc turned out to be 0%. In addition, the Activity in assay [3] came out at 16%. Moreover, the inhibition at 2.7 µg/disc in assay [4] was 30.8%. In addition, the EC50 in assay [5] is more than 1000 µg/mL.

Regarding `C/C1=C\[C@H]2[C@@H]([C@@H](O)C/C(C)=C/CC1)C2(C)C` [PARTHENIOL], the Ratio in assay [1] is 1.1. The mortality at 5.5 µg/disc in assay [2] came out at 71%. Moreover, the Activity in assay [3] was determined as 65%. In addition, the inhibition at 2.7 µg/disc in assay [4] is 46%. The EC50 in assay [5] came to 490 µg/mL (≈ 2230 µM).
